According to US20100285476A1, “METHODS OF IDENTIFYING HISTONE DEACETYLASE INHIBITORS USEFUL FOR NEUROLOGICAL DISORDERS” (priority 2007, published 2010):

How the values were obtained:
HDAC1 = HDAC1 (Homo sapiens, UniProt Q13547); assay: HDAC enzyme inhibition assay, purified HDAC1; assay type: biochemical
HDAC2 = HDAC2 (Homo sapiens, UniProt Q92769); assay: HDAC enzyme inhibition assay, purified HDAC2; assay type: biochemical
HDAC3 = HDAC3 (Homo sapiens, UniProt O15379); assay: HDAC enzyme inhibition assay, purified HDAC3; assay type: biochemical; conditions: for Relative Inhibitory Activity HDAC 1/3: IC50 for HDAC1 divided by IC50 for HDAC3; for Relative Inhibitory Activity HDAC 2/3: IC50 for HDAC2 divided by IC50 for HDAC3; for Relative Inhibitory Activity HDAC 5/3: IC50 for HDAC5 divided by IC50 for HDAC3; for IC50: purified HDAC3
HDAC5 = HDAC5 (Homo sapiens, UniProt Q9UQL6); assay: HDAC enzyme inhibition assay, purified HDAC5; assay type: biochemical
HepG2 cells = assay: Growth inhibition of HepG2 cells (CellTiter 96 AQueous One Solution); assay type: cell-based, human; conditions: for HepG2/HDAC3 (estimated therapeutic index): HepG2 growth IC50 divided by IC50 for HDAC3; for IC50: Homo sapiens, 72 hours; for IC50 / cytotoxicity, result in words: HepG2 cells
frataxin (FXN1) mRNA = assay: Frataxin mRNA expression in lymphocytes by quantitative RT-PCR; conditions: for frataxin mRNA expression, result in words / Fold Increase FXN1 Expr. (10 μM): 10 μM; for frataxin mRNA expression, result in words: human lymphocytes; for Fold Increase FXN1 Expr. (10 μM): human lymphocytes of normal donors, vs vehicle control
HDACs 1-10 = assay: Panel of individual purified HDAC enzymes (HDACs 1-10); assay type: biochemical, human

HDAC3, sequence (O15379 whole entry): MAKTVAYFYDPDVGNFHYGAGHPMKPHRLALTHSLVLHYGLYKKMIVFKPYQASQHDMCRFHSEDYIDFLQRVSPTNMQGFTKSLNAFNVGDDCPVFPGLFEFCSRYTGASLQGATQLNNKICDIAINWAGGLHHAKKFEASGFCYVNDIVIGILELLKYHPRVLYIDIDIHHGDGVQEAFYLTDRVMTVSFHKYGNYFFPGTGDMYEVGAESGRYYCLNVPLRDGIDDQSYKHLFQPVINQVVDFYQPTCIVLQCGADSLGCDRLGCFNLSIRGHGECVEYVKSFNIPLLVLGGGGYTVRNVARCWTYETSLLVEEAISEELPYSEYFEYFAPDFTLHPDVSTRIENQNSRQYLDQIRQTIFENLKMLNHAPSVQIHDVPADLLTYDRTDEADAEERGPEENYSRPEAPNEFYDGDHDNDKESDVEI
HDAC3, sequence (Q9Y618 395-489 partner limits assumed): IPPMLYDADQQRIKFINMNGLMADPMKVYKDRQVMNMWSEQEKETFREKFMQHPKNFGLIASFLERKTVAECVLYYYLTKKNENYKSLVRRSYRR
HDAC2, sequence (Q92769 whole entry): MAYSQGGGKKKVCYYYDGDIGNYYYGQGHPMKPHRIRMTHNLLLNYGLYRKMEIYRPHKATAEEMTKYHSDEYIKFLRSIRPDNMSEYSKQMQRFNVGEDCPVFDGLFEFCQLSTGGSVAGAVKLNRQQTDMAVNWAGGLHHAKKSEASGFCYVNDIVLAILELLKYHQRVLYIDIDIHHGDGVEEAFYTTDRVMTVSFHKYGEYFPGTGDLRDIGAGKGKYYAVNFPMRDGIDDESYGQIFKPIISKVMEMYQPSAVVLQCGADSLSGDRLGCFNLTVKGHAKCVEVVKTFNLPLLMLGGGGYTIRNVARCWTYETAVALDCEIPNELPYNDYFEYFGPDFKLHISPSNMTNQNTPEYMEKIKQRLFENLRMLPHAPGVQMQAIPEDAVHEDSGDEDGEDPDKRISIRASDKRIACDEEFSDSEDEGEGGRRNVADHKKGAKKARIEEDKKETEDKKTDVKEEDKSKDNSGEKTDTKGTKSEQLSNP
HDAC1, sequence (Q13547 whole entry): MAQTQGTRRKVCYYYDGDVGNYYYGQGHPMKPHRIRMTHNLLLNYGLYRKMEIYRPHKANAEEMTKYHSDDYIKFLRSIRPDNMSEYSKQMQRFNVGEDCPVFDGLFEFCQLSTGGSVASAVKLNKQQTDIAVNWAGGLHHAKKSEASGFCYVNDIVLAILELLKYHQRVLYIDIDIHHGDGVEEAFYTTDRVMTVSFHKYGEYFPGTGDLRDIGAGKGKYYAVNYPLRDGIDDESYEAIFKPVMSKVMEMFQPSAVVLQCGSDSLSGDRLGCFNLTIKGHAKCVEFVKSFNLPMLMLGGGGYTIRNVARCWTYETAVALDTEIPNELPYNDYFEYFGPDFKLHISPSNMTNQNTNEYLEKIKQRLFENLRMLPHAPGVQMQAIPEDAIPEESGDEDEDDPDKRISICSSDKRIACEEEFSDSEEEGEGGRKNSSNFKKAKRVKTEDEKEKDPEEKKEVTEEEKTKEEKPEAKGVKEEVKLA
HDAC5, sequence (Q9UQL6 whole entry): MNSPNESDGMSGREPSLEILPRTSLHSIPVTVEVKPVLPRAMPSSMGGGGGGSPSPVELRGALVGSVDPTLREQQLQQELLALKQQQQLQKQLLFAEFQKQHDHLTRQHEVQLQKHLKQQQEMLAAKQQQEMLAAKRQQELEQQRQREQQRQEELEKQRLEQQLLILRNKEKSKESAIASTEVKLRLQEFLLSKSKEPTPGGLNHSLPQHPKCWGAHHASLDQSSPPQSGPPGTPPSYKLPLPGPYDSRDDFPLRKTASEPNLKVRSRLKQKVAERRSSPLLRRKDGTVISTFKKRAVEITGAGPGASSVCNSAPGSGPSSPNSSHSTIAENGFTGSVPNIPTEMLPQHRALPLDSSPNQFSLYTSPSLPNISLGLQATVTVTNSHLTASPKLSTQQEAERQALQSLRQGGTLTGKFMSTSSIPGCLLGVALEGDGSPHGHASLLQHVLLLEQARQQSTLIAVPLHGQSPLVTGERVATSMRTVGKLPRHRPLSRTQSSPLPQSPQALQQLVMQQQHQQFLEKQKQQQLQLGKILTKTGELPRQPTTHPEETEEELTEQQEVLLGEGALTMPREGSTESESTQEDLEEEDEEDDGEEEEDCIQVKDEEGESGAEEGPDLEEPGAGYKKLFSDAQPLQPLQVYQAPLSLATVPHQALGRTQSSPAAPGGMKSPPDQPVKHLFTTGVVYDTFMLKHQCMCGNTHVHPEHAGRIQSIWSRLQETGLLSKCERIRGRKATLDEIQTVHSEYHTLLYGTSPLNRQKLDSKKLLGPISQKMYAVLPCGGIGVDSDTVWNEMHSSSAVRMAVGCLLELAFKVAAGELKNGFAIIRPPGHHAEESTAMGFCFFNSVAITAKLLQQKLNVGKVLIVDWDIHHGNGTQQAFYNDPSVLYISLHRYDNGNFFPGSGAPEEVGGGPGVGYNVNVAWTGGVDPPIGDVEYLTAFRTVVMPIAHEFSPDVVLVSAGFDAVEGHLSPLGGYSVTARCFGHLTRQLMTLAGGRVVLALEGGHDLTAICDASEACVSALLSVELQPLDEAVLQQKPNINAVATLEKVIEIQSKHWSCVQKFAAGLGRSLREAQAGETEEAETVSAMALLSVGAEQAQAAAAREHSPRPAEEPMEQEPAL

SMILES | IC50 (HDAC1) [µM] | IC50 (HDAC2) [µM] | HDAC3 inhibition, result in words (HDAC3) | Relative Inhibitory Activity HDAC 1/3 (HDAC3) | Relative Inhibitory Activity HDAC 2/3 (HDAC3) | Relative Inhibitory Activity HDAC 5/3 (HDAC3) | IC50 (HDAC3) [µM] | IC50 (HDAC5) [µM] | HepG2/HDAC3 (estimated therapeutic index) (HepG2 cells) | IC50 (HepG2 cells) [µM] | frataxin mRNA expression, result in words (frataxin (FXN1) mRNA) | Fold Increase FXN1 Expr. (10 μM) (frataxin (FXN1) mRNA) | cytotoxicity, result in words (HepG2 cells) | maximum observed increase of frataxin expression (frataxin (FXN1) mRNA; 1-30 μM, normal lymphocytes, compared to vehicle control (FIG. 1)) | frataxin expression, result in words (frataxin (FXN1) mRNA; normal lymphocytes or patient lymphocytes, all concentrations tested (1-30 μM)) | inhibition of all HDACs tested, result in words (HDACs 1-10)
Cc1ccc(NC(=O)CCCCCC(=O)N2CCN(c3ccccc3)CC2)cc1 [Compound 6] | 4.2 | 5.9 | did not show strong inhibition of HDAC3 | 0.45 | 0.65 | 2.0 | 9.1 | 18.2 | 12.3 | 112 | not active to increase frataxin expression | none | – | – | – | –
Cc1ccc(NC(=O)CCCCCC(=O)NO)cc1 [Compound 21] | 1.19 | 2.92 | strong HDAC3 inhibitory activity | 3.7 | 9.1 | 5.1 | 0.32 | 1.63 | 31 | 10 | effective to increase frataxin expression | 2.0 Fold | relatively low cytotoxicity | – | – | –
Nc1ccccc1NC(=O)c1ccc(CNC(=O)OCc2cccnc2)cc1 [MS-275, reference compound] | – | – | – | – | – | – | – | – | – | – | did appreciably increase frataxin mRNA expression | – | may be too cytotoxic for long-term use | – | – | –
Cc1ccc(NC(=O)CCCCCC(=O)Nc2ccccc2N)cc1 [RGFA8, N^1-(2-aminophenyl)-N^7-p-tolylheptanediamide] | – | – | – | – | – | – | – | – | – | – | – | – | – | about 16 fold | increased expression of frataxin | –
CC(/C=C/C(=O)NO)=C\[C@@H](C)C(=O)c1ccc(N(C)C)cc1 [TSA, trichostatin A] | – | – | – | – | – | – | – | – | – | – | – | – | – | – | – | Sub-micromolar inhibition
